Results reported in the supplement of paper PMC10307832.

Legend:
Experiment in all cases: relative viability (nuclei count vs DMSO), 5 days (fraction); higher = more cells survive
BAY61-3606 + Bortezomib = compound: COC1=C(C=C(C=C1)C2=CC3=NC=CN3C(=N2)NC4=C(C=CC=N4)C(=O)N)OC [BAY61-3606] + CC(C)C[C@H](NC(=O)[C@H](Cc1ccccc1)NC(=O)c1cnccn1)B(O)O [Bortezomib] (partner 0.002 µM)
Outline: (§1)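 Lung cancer cell lines were seeded in 1536-well plates and dosed by pin tool the next day, with either a single drug or a fixed anchor-drug dose combined with five library-drug doses (not always all listed) spaced in √10 steps. Five days later, one step fixed the cells and stained their nuclei (final 0.05% Triton X-100, 1% formaldehyde, 1 ug/ml Hoechst), and nuclei were counted on 4× images. Relative viability is the nuclei count in treated wells divided by the count in vehicle wells, and each value is the median of duplicate plates.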

Doxorubicin + Tozasertib = compound: COc1cccc2c1C(=O)c1c(O)c3c(c(O)c1C2=O)C[C@@](O)(C(=O)CO)C[C@@H]3O[C@H]1C[C@H](N)[C@H](O)[C@H](C)O1 [Doxorubicin] + Cc1cc(Nc2cc(N3CCN(C)CC3)nc(Sc3ccc(NC(=O)C4CC4)cc3)n2)n[nH]1 [Tozasertib] (partner 0.1 µM)
Outline: as §1

BAY61-3606 + Trametinib = compound: COC1=C(C=C(C=C1)C2=CC3=NC=CN3C(=N2)NC4=C(C=CC=N4)C(=O)N)OC [BAY61-3606] + CC(=O)Nc1cccc(-n2c(=O)n(C3CC3)c(=O)c3c(Nc4ccc(I)cc4F)n(C)c(=O)c(C)c32)c1 [Trametinib] (partner 0.02 µM)
Outline: as §1

Doxorubicin + Navitoclax = compound: COc1cccc2c1C(=O)c1c(O)c3c(c(O)c1C2=O)C[C@@](O)(C(=O)CO)C[C@@H]3O[C@H]1C[C@H](N)[C@H](O)[C@H](C)O1 [Doxorubicin] + CC1(C)CCC(c2ccc(Cl)cc2)=C(CN2CCN(c3ccc(C(=O)NS(=O)(=O)c4ccc(N[C@H](CCN5CCOCC5)CSc5ccccc5)c(S(=O)(=O)C(F)(F)F)c4)cc3)CC2)C1 [Navitoclax] (partner 0.5 µM)
Outline: as §1

## UMC-11
BAY61-3606 + Bortezomib; first compound 0.02 µM
  relative viability: 0.947
BAY61-3606 + Bortezomib; first compound 0.06325 µM
  relative viability: 0.616
BAY61-3606 + Bortezomib; first compound 0.2 µM
  relative viability: 0.643
BAY61-3606 + Bortezomib; first compound 0.6325 µM
  relative viability: 0.849
BAY61-3606 + Bortezomib; first compound 2 µM
  relative viability: 0.734
Doxorubicin + Tozasertib; first compound 0.001 µM
  relative viability: 0.22
Doxorubicin + Tozasertib; first compound 0.003162 µM
  relative viability: 0.215
Doxorubicin + Tozasertib; first compound 0.01 µM
  relative viability: 0.209
Doxorubicin + Tozasertib; first compound 0.03162 µM
  relative viability: 0.21
Doxorubicin + Tozasertib; first compound 0.1 µM
  relative viability: 0.208
BAY61-3606 + Trametinib; first compound 0.02 µM
  relative viability: 0.823
BAY61-3606 + Trametinib; first compound 0.06325 µM
  relative viability: 0.63
BAY61-3606 + Trametinib; first compound 0.2 µM
  relative viability: 0.509
BAY61-3606 + Trametinib; first compound 0.6325 µM
  relative viability: 0.759
BAY61-3606 + Trametinib; first compound 2 µM
  relative viability: 0.688
Doxorubicin + Navitoclax; first compound 0.001 µM
  relative viability: 0.414
Doxorubicin + Navitoclax; first compound 0.003162 µM
  relative viability: 0.306
Doxorubicin + Navitoclax; first compound 0.01 µM
  relative viability: 0.323
Doxorubicin + Navitoclax; first compound 0.03162 µM
  relative viability: 0.229
Doxorubicin + Navitoclax; first compound 0.1 µM
  relative viability: 0.366
